In one experiment the target is T1, S1P1R (Mus musculus, UniProt O08530).
T1 construct: from tissue; host or cells: spleen
The experiment can be described thus: S1P1R cell surface expression on splenic CD4+ T cells by flow cytometry. The conditions noted are these: NZBWF1 mice, splenocytes at termination; 0.3, 1.0, 3.0 mg/kg PO QD. In kind it is in vivo. An excerpt:
S1P1R is expressed on T and B lymphocytes and is the target for modulation by compound 5. Following agonism of the receptor by compound 5, the receptor is internalized and degraded. To determine whether internalization is occurring in T cells following compound dosing in vivo, both naïve and activated CD4+ T cells were examined for cell surface expression of S1P1R. At termination, spleens were harvested and splenocytes isolated and analyzed for immune cell populations by antibody staining and flow cytometry. S1P1R expression was measured on both activated CD4+ T cells (CD3+CD4+CD44+CD62L−) and naïve T cells (CD3+CD4+CD44−CD62L+).

Another experiment has as its system IFN-inducible genes. Briefly: mRNA expression of genes responsive to type-1 interferon signaling. In kind it is in vivo. Conditions: NZBWF1 mice; 3 mpk PO.

T1 sequence (O08530 whole entry): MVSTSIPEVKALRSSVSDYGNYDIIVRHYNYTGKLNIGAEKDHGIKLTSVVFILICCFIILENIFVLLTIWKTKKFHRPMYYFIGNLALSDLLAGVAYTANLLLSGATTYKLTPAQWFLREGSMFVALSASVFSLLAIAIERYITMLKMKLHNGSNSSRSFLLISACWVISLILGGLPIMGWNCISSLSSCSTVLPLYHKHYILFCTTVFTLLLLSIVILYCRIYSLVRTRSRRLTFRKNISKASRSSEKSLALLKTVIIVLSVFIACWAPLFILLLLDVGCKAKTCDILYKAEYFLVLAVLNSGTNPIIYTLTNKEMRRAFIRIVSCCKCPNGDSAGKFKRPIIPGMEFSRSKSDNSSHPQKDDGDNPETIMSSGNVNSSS

With `CC(C)Oc1ccc(-c2nc(-c3cccc4c3CC[C@@H]4NCCO)no2)cc1C#N` [compound 5, (S)-5-(3-(1-(2-hydroxyethylamino)-2,3-dihydro-1H-inden-4-yl)-1,2,4-oxadiazol-5-yl)-2-isopropoxy benzonitrile], at S1P1R, the “S1P1R expression on activated CD4+ T cells (CD3+CD4+CD44+CD62L−)” value is “reduced in a dose-dependent manner” and the “S1P1R expression on naïve CD4+ T cells (CD3+CD4+CD44−CD62L+)” value was “reduced in a dose-dependent manner”. In the case of `CC(C)Oc1ccc(-c2nc(-c3cccc4c3CC[C@@H]4N)no2)cc1C#N` [compound 148, (S)-5-(3-(1-amino-2,3-dihydro-1H-inden-4-yl)-1,2,4-oxadiazol-5-yl)-2-isopropoxy-benzonitrile], the “Expression levels of IFN-inducible genes (mRNA)” value with IFN-inducible genes is given as “no significant effect”.

The values are drawn from patent US11278526B2, “Compounds and methods for treating lupus” (RECEPTOS LLC, priority 2016, dated 2022).
